The values below come from ChEMBL document CHEMBL1201862, “PubChem BioAssay data set” (2004).

Experiment in all cases: inhibition of tumour cell growth, NCI panel, 48 h
The test system of test [1] is UACC-62.
Test [2] has as its system RXF 393.
Test [3] relates to LOX IMVI.
The test system of test [4] is HCT-116.
In test [5] the test system is NCI-H23.
The subject of test [6] is SK-OV-3.
The test system of test [7] is 786-0.
Test [8] concerns NCI-H460.
The subject of test [9] is HOP-62.
In test [10] the test system is OVCAR-3.
The test system of test [11] is RPMI-8226.
Test [12] concerns Malme-3M.
Test [13] relates to HCC 2998.
In test [14] the test system is SNB-75.
The subject of test [15] is K562.
Test [16] deals with HL-60.

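These data come from cells grown in 96-well plates and exposed to compound for 48 hours at five concentrations. Abbreviation: GI50, concentration required for 50% inhibition of growth.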 Calls of active or inactive are those of the source. Cut-off read from the data, not from the text of the source: active = GI50 up to about 1.1 µM and inactive = higher.

In the case of `Cn1cnc([N+](=O)[O-])c1Sc1nc2cc(Cl)c(F)cc2[nH]1`, the GI50 in [1] was 14 µM (inactive); in test [2] it was 3.69 µM (inactive); in [3], 16.1 µM (inactive); in test [4] it was 6.9 µM (inactive); in [5] it was 11.5 µM (inactive); in test [6] it was 21.5 µM (inactive). The GI50 in test [7] is > 10 µM (inactive); in test [8] it was 10.3 µM (inactive); in [9], 74.5 µM (inactive); in test [10] it was > 10 µM (inactive); in [11], 7.24 µM (inactive); in [12], 13.7 µM (inactive). For the same compound, the GI50 is 7.6 µM (inactive) in [13] and 13.8 µM (inactive) in test [14].
Regarding `N#CC(C(=O)/C(=N/N)C(C#N)c1ccccc1)c1ccccc1` (configuration not stated), the GI50 in [1], in [2], in [3], in test [4], in test [5] and in [6] was > 100 µM (inactive) throughout. Also, the GI50 in test [7], in test [15], in test [8], in test [9], in test [10] and in [16] was > 100 µM (inactive) in each case. In addition, the GI50 in test [11], in test [12] and in [13] was > 100 µM (inactive) in each case.
With `CN(C)CCNC(=O)c1ccc(Cl)c2c(Nc3ccc(S(N)(=O)=O)cc3)c3ccccc3nc12`, the GI50 is 1.56 µM (inactive) in test [1]; 0.594 µM (active) in test [3]; 0.29 µM (active) in test [4]; 2.97 µM (inactive) in test [5]; 2.22 µM (inactive) in test [6]; 1.55 µM (inactive) in [7]. Besides, the GI50 in test [15] was 0.612 µM (active); in [8], 0.706 µM (active); in [9], 8.45 µM (inactive); in [10], 2.42 µM (inactive); in test [16], 0.553 µM (active); in test [11] it was 4.5 µM (inactive). Besides, the GI50 was 3.46 µM (inactive) in test [12], 3.03 µM (inactive) in [13] and 1.33 µM (inactive) in [14].
On to `CN(C)P(=O)(/C(N)=N/Nc1ccc([N+](=O)[O-])cc1)N(C)C`, for which the GI50 is > 100 µM (inactive) in [1]; > 100 µM (inactive) in test [3]; > 100 µM (inactive) in test [4]; 62.4 µM (inactive) in test [5]; > 100 µM (inactive) in test [7]; > 100 µM (inactive) in [15]. For the same compound, the GI50 in test [8], in test [9], in test [10], in test [16], in [11] and in test [12] was > 100 µM (inactive) each time. Moreover, the GI50 in test [13] and in test [14] was > 100 µM (inactive) in each case.
Consider `c1cncc(C2c3[nH]c4ccccc4c3CCN2CCN2CCCCC2)c1` (configuration not stated), for which the GI50 in test [1], in test [3], in test [4], in test [5], in test [6] and in test [7] was > 100 µM (inactive) throughout. Besides, the GI50 is 35.6 µM (inactive) in [15]; > 100 µM (inactive) in test [8]; > 100 µM (inactive) in [9]; > 100 µM (inactive) in test [10]; 41.5 µM (inactive) in test [16]; 62.8 µM (inactive) in test [11]. The GI50 is > 100 µM (inactive) in test [13] and 43.6 µM (inactive) in test [14].
On to `N#C/C(=C1\OC(=N)C(c2ccc(Cl)cc2Cl)C1=O)c1ccc(Cl)cc1Cl` (configuration not stated), for which the GI50 in test [1], in [2], in test [3], in test [4], in test [5] and in test [6] was > 100 µM (inactive) each time. Moreover, the GI50 in [7], in test [15], in test [10], in [16], in test [11] and in test [12] was > 100 µM (inactive) each time. Further, in [14], the GI50 was 58.9 µM (inactive).
As for `CCOC(=O)C(C(=O)OCC)S(C)(=O)=O`, the GI50 in [1], in test [2], in [3], in test [4], in [5] and in test [6] was > 100 µM (inactive) in each case. For the same compound, the GI50 in test [7], in test [15], in [8], in test [9], in [10] and in [16] was > 100 µM (inactive) each time. Besides, the GI50 in test [11], in [12] and in test [13] was > 100 µM (inactive) each time.
For `Nn1c(S)nnc1N/N=C1/C(=O)Nc2ccccc21`, the GI50 in test [1] was 71.8 µM (inactive); in test [2] it was 27.7 µM (inactive); in [3], 35.4 µM (inactive); in test [4] it was 53.1 µM (inactive); in [5], 16.9 µM (inactive); in test [6], 43.7 µM (inactive). Besides, the GI50 was > 100 µM (inactive) in test [7]; 59 µM (inactive) in test [15]; 54.7 µM (inactive) in [8]; 64.9 µM (inactive) in test [9]; 80.4 µM (inactive) in test [10]; 94.4 µM (inactive) in test [16]. In addition, the GI50 was 63.2 µM (inactive) in [11], > 100 µM (inactive) in test [12] and > 100 µM (inactive) in test [13].
`CC(O)c1ccc[n+](Cc2ccccc2)c1` (configuration not stated): the GI50 in test [1], in test [2], in [3], in test [4], in test [5] and in [6] was > 400 µM (inactive) in each case. In addition, the GI50 in test [7], in [15], in test [8], in test [9], in test [10] and in test [16] was > 400 µM (inactive) in each case. The GI50 in [11], in test [12] and in test [13] was > 400 µM (inactive) throughout.
For the compound `O=C1c2ccccc2C(=O)C2C3c4ccccc4C(c4ccccc43)C12` (configuration not stated), the GI50 in [1] is 33 µM (inactive); in test [2], 7.8 µM (inactive); in test [3], 13.5 µM (inactive); in [4], 28.8 µM (inactive); in [5], 41.7 µM (inactive); in test [6] it was 24.9 µM (inactive). Besides, the GI50 was 5.45 µM (inactive) in test [7]; 15.9 µM (inactive) in test [15]; 50.2 µM (inactive) in [8]; 30 µM (inactive) in test [9]; 19.5 µM (inactive) in test [10]; 10.9 µM (inactive) in test [11]. For the same compound, the figures for the GI50 in test [12], in [13] and in test [14] were 13.1 µM (inactive), 36.3 µM (inactive) and 15.6 µM (inactive), respectively.
As to `COc1ccc(C2=NN(c3ccccc3)C[N+](c3ccc(C)cc3)=N2)cc1`, the GI50 in test [2] was 19.5 µM (inactive); in test [3], 32 µM (inactive); in test [4], 35.1 µM (inactive); in test [5], 41.3 µM (inactive); in test [7], 43.6 µM (inactive); in test [15], 14.6 µM (inactive). Besides, the GI50 in test [8] was 65.5 µM (inactive); in test [9], > 100 µM (inactive); in [10], 23 µM (inactive); in test [16], 27.7 µM (inactive); in test [11], 26.9 µM (inactive); in test [12], 48.3 µM (inactive). For the same compound, the GI50 in [13] was > 100 µM (inactive).
On to `CCOC(=O)/C(=C/c1cccc(C#N)c1)N(CC)CC`, for which the GI50 in [1], in test [3], in test [4], in [5], in [6] and in test [7] was > 100 µM (inactive) throughout. In addition, the GI50 in [15], in test [8], in test [9], in test [16], in test [11] and in test [12] was > 100 µM (inactive) throughout. Also, the GI50 in test [13] and in [14] was > 100 µM (inactive) each time.
For the compound `CCN1CCC(O)(c2ccc(Cl)c(Cl)c2)C(C(=O)c2ccc(Cl)c(Cl)c2)C1` (configuration not stated), the GI50 in [1] was 17 µM (inactive); in [3], 17.8 µM (inactive); in [4] it was 18.5 µM (inactive); in test [5], 19.7 µM (inactive); in test [6] it was 18.2 µM (inactive); in [7], 15.4 µM (inactive). For the same compound, the GI50 in test [15] was 18 µM (inactive); in test [8] it was 21.3 µM (inactive); in test [9], 18.3 µM (inactive); in test [10] it was 13.7 µM (inactive); in [16] it was 15.2 µM (inactive); in test [11], 1.65 µM (inactive). In addition, the GI50 in test [12] is 18.2 µM (inactive); in test [13] it was 19.9 µM (inactive); in [14] it was 14.3 µM (inactive).
As to `O=C(c1ccc(Cl)cc1)N(C(=S)N1CCN(c2ccccn2)CC1)c1ccccc1`, the GI50 in test [1] is > 100 µM (inactive); in [2] it was 15.6 µM (inactive); in test [3] it was > 100 µM (inactive); in test [4] it was 97.5 µM (inactive); in test [5], > 100 µM (inactive); in [6], > 100 µM (inactive). In addition, the GI50 in test [7] was > 100 µM (inactive); in test [15], 41.7 µM (inactive); in [8], > 100 µM (inactive); in test [9] it was > 100 µM (inactive); in test [10], 66.4 µM (inactive); in [16], 32.7 µM (inactive). For the same compound, the figures for the GI50 in test [11], in [12] and in test [14] were 82.4 µM (inactive), > 100 µM (inactive) and > 100 µM (inactive), respectively.
